Source: patent publication US6995138B2, “Cross-linked glycopeptide-cephalosporin antibiotics” (priority 2002, dated 2006)
Values after ≈ are worked out from the molar mass of the structure shown.

Tests used:
[1] = system: Methicillin-sensitive S. aureus (MSSA 13709); experiment: Minimal inhibitory concentration (MIC), broth microdilution, MSSA; format: cell-based; details: Staphylococcus aureus, read-out: MIC (minimum inhibitory concentration)
Description: (§1) Minimal inhibitory concentration (MICs) assays were performed using the broth microdilution method set forth in NCCLS guidelines (see, NCCLS. 2000. Methods for Dilution Antimicrobial Susceptibility Tests for Bacteria That Grow Aerobically; Approved Standard—Fifth Ed., Vol. 20, No. 2). Bacterial strains were obtained from the American Type Tissue Culture Collection (ATCC), Stanford University Hospital (SU), Kaiser Permanente Regional Laboratory in Berkeley (KPB), Massachusetts General Hospital (MGH), the Centers for Disease Control (CDC), the San Francisco Veterans' Administration Hospital (SFVA) or the University of California San Francisco Hospital (UCSF). Vancomycinresistant enterococci were phenotyped as Van A or Van B based on their sensitivity to teicoplanin. Some vancomycin-resistant enterococci that had been genotyped as Van A, Van B, Van C1 or Van C2 were also obtained from the Mayo Clinic.
(§2) In this assay, cryopreserved bacterial cultures of reference and clinical strains were streaked for isolation on appropriate agar medium (i.e., Trypticase Soy Agar, Trypticase Soy Agar with defibrinated sheep erthrocytes, Brain Heart Infusion Agar, Chocolate Agar). Following incubation to allow formation of colonies, these plates were sealed with parafilm and stored refrigerated for up to two weeks. […] The MIC was read visually as the lowest concentration well with no bacterial growth. […]

MSSA 13709 = experiment: Time-kill assay, MSSA; format: cell-based, Staphylococcus aureus; details: bactericidal in 24 hours
Description: (§3) Time-Kill Assay This time-kill assay is a method for measuring the rate of bactericidal activity of a test compound.
(§4) Bacteria were diluted in prewarmed media in shake flasks and incubated with shaking (200 rpm, 35° C.). At 0, 1, 4, and 24 hours samples were withdrawn from the flasks and bacteria were enumerated by plate counting. Subsequent to the initial sampling, a compound to be assayed was added to the shake flask culture. Plate counts at these intervals previous to and following addition of the compound were expressed graphically in a time-kill curve.

MRSA 33591 [2] = experiment: In vivo efficacy in neutropenic mice (thigh infection); details: Staphylococcus aureus; neutropenic male CD-1 mice, MRSA 33591 thigh infection, iv, 24 hours post-treatment; read-out: ED50 (dose required to produce 50% of the maximum reduction in thigh titre)
Description: In vivo Efficacy Studies in Neutropenic Mice Animals (male CD-1 mice, 20-30 g) were acquired from Charles Rivers Laboratories (Gilroy, Calif.) and allowed access to food and water ad libitum. Neutropenia was induced via 200 mg/kg intraperitoneal (IP) injection of cyclophosphamide given four and two days prior to the inoculation of bacteria.
The organism used was either a susceptible or resistant strain of clinically relevant gram positive pathogens, such as methicillin-susceptible Staphylococcus aureus (MSSA 13709) and methicillin-resistant Staphylococcus aureus (MRSA 33591). The bacterial inoculum concentration was ˜10^6 CFU/mL. Animals were lightly anesthetized with isoflurane and […] of the bacterial inoculum was injected into the anterior thigh. One hour after the inoculation, animals were dosed intravenously with vehicle or the appropriate dose of the test compound. At 0 hours and 24 hours post-treatment, the animals were euthanized (CO2 asphyxiation) and the anterior and posterior thigh collected aseptically. The thigh was placed into 10 mL sterile saline and homogenized. Dilutions of the homogenate were plated onto triptic soy agar plates which were incubated overnight. The number of bacterial colonies on a given plate was multiplied by the dilution factor, divided by the thigh weight (in grams) and expressed as log CFU/g. […]

[3] = system: Methicillin-resistant S. aureus (MRSA 33591); experiment: Minimal inhibitory concentration (MIC), broth microdilution, MRSA; format: cell-based; details: Staphylococcus aureus, read-out: MIC (minimum inhibitory concentration)
Description: as §1, §2

MRSA 33591 [4] = experiment: Time-kill assay, MRSA; format: cell-based, Staphylococcus aureus; details: bactericidal in 24 hours
Description: as §3, §4

Q: What does the source list for `CN[C@H](CC(C)C)C(=O)N[C@H]1C(=O)N[C@@H](CC(N)=O)C(=O)N[C@H]2C(=O)N[C@H]3C(=O)N[C@H](C(=O)N[C@H](C(=O)O)c4cc(O)cc(O)c4-c4cc3ccc4O)[C@H](O)c3ccc(c(Cl)c3)Oc3cc2cc(c3O[C@@H]2O[C@H](CO)[C@@H](O)[C@H](O)[C@H]2O[C@H]2C[C@](C)(N)[C@H](O)[C@H](C)O2)Oc2ccc(cc2Cl)[C@H]1O` [Vancomycin, vancomycin]?
A: MIC [1]: 1 µg/mL (≈ 0.69 µM); concentration at which bactericidal (≧3 log decrease in bacterial cell numbers) (MSSA 13709): 4 μg/mL; ED50 (MRSA 33591 [2]): 9 mg/kg; MIC [3]: 2 µg/mL (≈ 1.38 µM); concentration at which bactericidal (≧3 log decrease in bacterial cell numbers) (MRSA 33591 [4]): 4 μg/mL
